The text below walks through data of PubChem BioAssay AID1645848.

In brackets after ≈: the same amount, converted by molar mass.

The conditions of this data set: buffer; pH 7.4; 6.0 h; 150.0 µM.
What is called solubility (kinetic) is the concentration staying in solution when a stock, usually in DMSO, is diluted into the medium. As to `O=C(Nc1nc(-c2ccccc2)cs1)c1ccncc1NS(=O)(=O)c1ccc(F)cc1Cl`, the solubility (kinetic) was less than 1 µg/mL. To `COc1ccc(CNc2ccc(S(=O)(=O)Nc3nccs3)cc2)cc1O` belongs 7.85 µg/mL (≈ 20.1 µM). To `Nc1scc2c(C(=O)O)nn(-c3ccccc3)c(=O)c12` belongs 23.9 µg/mL (≈ 83.1 µM); to `CCOc1ccc(CCNC(=O)c2cc3ncccc3n2Cc2cccc(C)n2)cc1OCC`, greater than 68 µg/mL. With `Cc1cccc(N2CCN(C(=O)Cn3ncc4c3-c3ccccc3OC4)CC2)c1C`, the kinetic solubility was 3.85 µg/mL (≈ 9.57 µM). Consider `COc1cccc(CNc2ccc(S(=O)(=O)Nc3cccc4ccccc34)cc2)c1O`, for which the solubility (kinetic) was less than 1 µg/mL. Turning to `C=C1[C@@H](C)C2[C@H](Cc3ccccc3)NC(=O)[C@@]23C(/C=C/C[C@H](C)C[C@@](C)(O)/C=C/[C@@H]3OC(C)=O)[C@@H]1O` (stereo not given in full), the solubility (kinetic) worked out at 1.9 µg/mL (≈ 3.85 µM).

Consider `CO[C@@H]1/C=C\O[C@@]2(C)Oc3c(C)c(O)c4c(c3C2=O)C(=N[C@H]2CC[C@H](O)O[C@@H]2C)C=C(NC(=O)/C(C)=C\C(=O)[C@@H]2C[C@@H]2[C@@H](O)[C@H](C)[C@@H](O)[C@H](C)[C@H](OC(C)=O)[C@@H]1C)C4=O`, for which the solubility (kinetic) amounted to 32.3 µg/mL (≈ 39.3 µM). To `NC(=O)C1CCN(c2nc(-c3ccc4c(c3)OCCCO4)cs2)CC1` belongs 34.7 µg/mL (≈ 96.4 µM). Next, `C=Cc1ccc(C(=O)N2CCCC(CCC(=O)N3CCN(c4ccccn4)CC3)C2)cc1` (stereo not given): greater than 64 µg/mL. Next, `CCOC(=O)NNc1ccc(N(CC)CC(C)O)nn1` (stereo not given): 4.72 µg/mL (≈ 16.7 µM); `Cc1ccc(-c2csc(NC(=O)c3ccccc3NS(=O)(=O)c3ccc(C)cc3)n2)cc1`: less than 1 µg/mL; `O=S(=O)(Nc1nccs1)c1ccc(NCc2ccc(Br)cc2O)cc1`: less than 1 µg/mL. On to `Cc1ccc(S(=O)(=O)Nc2cnccc2C(=O)Nc2nc(-c3ccc(Oc4ccccc4)cc3)cs2)cc1`, for which the kinetic solubility worked out at 0.918 µg/mL (≈ 1.69 µM).

Take `O=C(Nc1ccc2c(N3CCOCC3)ncnc2c1)c1cccc(Br)c1`: the solubility (kinetic) is 9.48 µg/mL (≈ 22.9 µM). `O=[S+]([O-])(Nc1nccs1)c1ccc(NCc2cccc(Cl)c2)cc1` showed a kinetic solubility of 2.53 µg/mL (≈ 6.67 µM). To `CC[C@@H]1C(=O)N(C)c2cnc(Nc3ccc(C(=O)NC4CCN(C)CC4)cc3OC)nc2N1C1CCCC1` belongs greater than 77 µg/mL; to `CC(C)(C)C1CCc2[nH]c3ccccc3c(=O)c2C1` (stereo not given), 1.88 µg/mL (≈ 7.34 µM); to `CCc1ccc(-n2c(=O)c3cccnc3n2CC(=O)Nc2cc(OC)ccc2OC)cc1`, less than 1 µg/mL. Next, `CC(NCc1ccc2c(c1)nc(NC(=O)c1ccc(-c3cn[nH]c3)s1)n2CC(C)(C)O)C(C)(C)C` (stereo not given): greater than 73 µg/mL; `Cc1ccc(S(=O)(=O)Nc2cccc(C(=O)Nc3nc(-c4ccc(Cl)cc4)cs3)c2)cc1`: less than 1 µg/mL; `COc1cc(CNCCO)cc(Cl)c1OCc1ccc(Cl)cc1Cl.Cl`: 40 µg/mL. Molecule `O=C(Nc1nc(-c2ccccc2)cs1)c1ccncc1NS(=O)(=O)c1ccc(Cl)cc1` displayed a kinetic solubility of less than 1 µg/mL. To `CCCCCNc1oc(-c2cccc3ccccc23)nc1C#N` belongs less than 1 µg/mL; to `CCOc1ccc(CCNC(=O)c2cc3sccc3n2Cc2ccccc2)c(F)c1OCC`, less than 1 µg/mL. Consider `Fc1ccc(Nc2nc(-c3ccncc3Cl)nc3ccccc23)cc1F`, for which the kinetic solubility is less than 1 µg/mL. Consider `O=C(Nc1ccc(-c2ccccc2)cc1)[C@H](Cc1ccc(O[S+](=O)([O-])c2cccc3cnccc23)cc1)N[S+](=O)([O-])c1cccc2cnccc12`, for which the kinetic solubility is less than 1 µg/mL. Next, `CCOc1ccc(CCNC(=O)c2cc3sccc3n2CCN2CCN(C)CC2)cc1OCC`: greater than 72 µg/mL; `COCCn1ccc2c(C3=CCOCC3)nc(-c3cccc(NC(C)=O)c3)cc21`: greater than 87 µg/mL. Next, `Oc1ccc2[nH]cc(CCCCN3CC=C(c4ccccc4)CC3)c2c1`: 42.4 µg/mL (≈ 122 µM); `CCOc1ccc(S(=O)(=O)NCc2cccnc2)cc1NC(=O)c1ccccc1F`: less than 1 µg/mL; `Fc1cc(Nc2nc(-c3ccncc3)nc3ccccc23)ccc1OC(F)(F)F`: less than 1 µg/mL. For the molecule `O=C(NC(c1ccccc1)c1cc(Cl)c2cccnc2c1O)c1cccnc1` (stereo not given), the solubility (kinetic) was less than 1 µg/mL. Next, `Cc1ccc(S(=O)(=O)N(C)c2ccccc2C(=O)Nc2nc(-c3ccccc3)cs2)cc1`: less than 1 µg/mL; `O=C(Nc1nc(-c2ccccn2)cs1)c1cccc(S(=O)(=O)N2CCOCC2)c1`: 24.3 µg/mL (≈ 56.4 µM); `NC(=O)C1CCN(c2nc(-c3cccc([N+](=O)[O-])c3)cs2)CC1`: 28.4 µg/mL (≈ 85.3 µM).

Consider `O=C(Nc1ccc2c(N3CCCCC3)ncnc2c1)c1cc(F)cc(F)c1`, for which the solubility (kinetic) is less than 1 µg/mL. On to `CCCc1cc(C)[nH]c(=O)c1CNC(=O)c1cc(-c2ccnc(N3CCN(C)CC3)c2)cc2c1cnn2C(C)C`, for which the kinetic solubility was 64 µg/mL (≈ 118 µM). Next, `O=C(Cc1ccc(Cl)cc1)Nc1cnccc1C(=O)O`: greater than 43 µg/mL. To `Cc1ccc(S(=O)(=O)Nc2cncc(C(=O)Nc3nc(-c4ccccc4)cs3)c2)cc1` belongs less than 1 µg/mL; to `Cc1ccnc(N=C(N)N2CCN(c3cccc(C(F)(F)F)c3)CC2)c1`, 24.4 µg/mL (≈ 67.2 µM).

Turning to `CC1=C(C(=O)Nc2ccc(Cl)cc2)C(c2ccccc2C)n2ncc(C(=O)Nc3ccc(C)cc3)c2N1` (stereo not given), the kinetic solubility was less than 1 µg/mL.

With `O=C(Nc1nc(-c2ccccc2)cs1)c1ccncc1NS(=O)(=O)c1c(F)cc(F)cc1F`, the solubility (kinetic) stood at 58 µg/mL (≈ 118 µM).

For the molecule `Cc1c(Cl)cccc1-n1ncc(C(=O)Nc2ccc(Br)cc2F)c1C1CCNCC1`, the kinetic solubility was greater than 72 µg/mL. Next, `CCOc1ccc(Nc2nc(C)c(NC(=O)c3ccc(C)cc3)c(Nc3ccc(OCC)cc3)n2)cc1`: less than 1 µg/mL. Next, `COc1ncc(-c2ccc3c(Nc4cc(Oc5cc(F)cc(F)c5)cc(C(=O)O)c4)c(S(=O)(=O)NC4CC4)cnc3c2)c(OC)n1`: 21.5 µg/mL (≈ 33.1 µM).

As for `Cc1c(-c2nsc(NC(=O)c3cccc(Cl)c3)n2)nnn1-c1ccccc1C(F)(F)F`, the kinetic solubility was less than 1 µg/mL. To `COc1c(Cl)cc2c([nH]c3cnccc32)c1NC(=O)c1cccnc1C` belongs 6.08 µg/mL (≈ 16.6 µM); to `NC(=O)C1CCN(c2nc(-c3ccc4ccccc4c3)cs2)CC1`, 3.67 µg/mL (≈ 10.9 µM); to `CCNC(=O)Nc1ncc(-c2cc(-c3c(C)cc(OC)cc3C)nc(-c3cnccn3)n2)s1`, less than 1 µg/mL. To `CC(C)(C)c1ccc(C(=O)Nc2cn3cc(-n4ccnc4)ccc3n2)cc1` belongs less than 1 µg/mL. Next, `COc1ccc(NC(=O)c2c(C)cccc2C)cc1[S+](=O)([O-])N(C)C`: 32.8 µg/mL (≈ 90.4 µM); `CNc1nccc(-c2cccc3ccccc23)n1`: 4.49 µg/mL (≈ 19.1 µM); `NC[C@H](O)c1ccc(O)c(O)c1`: greater than 25 µg/mL. The molecule `COc1cccc(NS(=O)(=O)c2ccc(C)cc2)c1C(=O)Nc1nc(-c2ccccc2)cs1` came in with a solubility (kinetic) of less than 1 µg/mL. Next, `COc1cccc(-n2nc(C(=O)O)cc2-c2ccc(C3CCCCC3)c(Cl)c2)c1`: 15.2 µg/mL (≈ 37.1 µM). For the molecule `O=C(O)c1ccnc2cc(C(OCC3CCC(F)(F)CC3)c3ccccc3Cl)[nH]c12` (stereo not given), the solubility (kinetic) is greater than 64 µg/mL.

`COc1ccc2oc(NC3=NC(c4[nH]ncc4Cl)C4=C(CCCC4=O)N3)nc2c1` (stereo not given) displayed a solubility (kinetic) of 11.2 µg/mL (≈ 27.2 µM). As to `CC1=Nc2cc(C(=O)NCCc3ccccc3)ccc2Sc2c(C)ccc(C)c21`, the kinetic solubility was less than 1 µg/mL. Next, `COc1ccc(-c2nc(Nc3ccc(F)c(F)c3)c3ccccc3n2)cc1`: less than 1 µg/mL. `COc1ccc(-n2c(C)c(C(C)=O)c3cc(O)ccc32)cc1` returned a solubility (kinetic) of 5.69 µg/mL (≈ 19.3 µM).

Turning to `CC(=O)c1c(C)[nH]c(C(=O)Nc2ccc(OCCCN(C)C)c(S(=O)(=O)Nc3ccc(Br)cc3)c2)c1C`, the solubility (kinetic) was 39 µg/mL (≈ 66 µM). As for `Cc1ccc(-c2cc(C(=O)NCc3ccc(S(N)(=O)=O)cc3)c3ccccc3n2)cc1C`, the kinetic solubility is less than 1 µg/mL. To `Cc1ccc(S(=O)(=O)Nc2cnccc2C(=O)NCCc2ccccc2)cc1` belongs greater than 58 µg/mL; to `O=C1CCc2cc(S(=O)(=O)Nc3ccc(F)c(Cl)c3)ccc2N1`, greater than 52 µg/mL. To `CC(C)(C)c1ccc(-c2csc(N3CCC(C(N)=O)CC3)n2)cc1` belongs less than 1 µg/mL. Next, `O=C(Cc1ccc(Cl)c(Cl)c1)Nc1ccc([S+](=O)([O-])Nc2ccccn2)cc1`: less than 1 µg/mL.

Regarding `Cc1ccccc1C(=O)Nc1nc2c(s1)CC(C(C)(C)C)CC2` (stereo not given), the solubility (kinetic) is less than 1 µg/mL.

For the molecule `COc1cc(/C=C2\C(=O)Nc3ccccc32)ccc1O`, the solubility (kinetic) is 15 µg/mL (≈ 56 µM).

Turning to `CCOc1cc2c(cc1OCC)CN(C(=O)c1cc3sccc3n1Cc1ccccc1)CC2`, the solubility (kinetic) is less than 1 µg/mL. Turning to `CCOc1ccc(CCNC(=O)c2cc3cccnc3n2Cc2cccc(C)c2)cc1OCC`, the kinetic solubility was less than 1 µg/mL.

In turn, `Cc1cccc2nc(-c3cccnc3)c(Nc3ccc(C(C)C)cc3)n12` came in with a solubility (kinetic) of less than 1 µg/mL. As for `O=S(=O)(Nc1nccs1)c1ccc(NCc2cccc3cc[nH]c23)cc1`, the solubility (kinetic) was 20.5 µg/mL (≈ 53.2 µM). The molecule `CCOC(=O)CCNc1cc(N2CCc3ccccc3CC2)nc(-c2cccnc2)n1` had a kinetic solubility of 4.04 µg/mL (≈ 9.67 µM). Next, `Nc1nc2c(s1)C(c1c(Cl)cccc1Cl)CC(=O)N2` (stereo not given): less than 1 µg/mL; `CC(=O)c1cccc(-c2csc(N3CCC(C(N)=O)CC3)n2)c1`: greater than 49 µg/mL. Turning to `Fc1cc(Nc2nc(-c3ccncc3)nc3ccccc23)ccc1-c1ccnc(C(F)(F)F)c1`, the solubility (kinetic) is less than 1 µg/mL. On to `O=S(=O)(Nc1cccc2ccncc12)c1ccc(NCc2cccc(Cl)c2O)cc1`, for which the solubility (kinetic) was determined as 4.67 µg/mL (≈ 10.6 µM). To `CC(=O)N1CCc2c(sc3c2c(=O)n(-c2ccccc2Cl)c(=O)n3Cc2cccc(C)c2)C1` belongs 2.16 µg/mL (≈ 4.5 µM); to `CC(=O)N1CCN(c2ccc(OCc3nn(C)c(C)c3-c3cccc4c(CCCOc5cccc6ccccc56)c(C(=O)O)n(Cc5cccnc5)c34)cc2)CC1`, greater than 100 µg/mL. In the case of `Cc1ccc(-c2cc(C(=O)Nc3ccc(S(N)(=O)=O)cc3)c3ccccc3n2)cc1C`, the solubility (kinetic) is less than 1 µg/mL. With `COc1cc(/C=C(\C#N)C(=O)c2ccc(O)c(O)c2)cc(I)c1O`, the kinetic solubility worked out at 50.3 µg/mL (≈ 115 µM).

`NC(=O)C1CCN(c2ncnc(-c3ccc4c(c3)OCCCO4)n2)CC1` registered a kinetic solubility greater than 52 µg/mL.

`Cn1ccc2cc(-c3csc(N4CCC(C(N)=O)CC4)n3)ccc21` had a solubility (kinetic) of 32.9 µg/mL (≈ 96.7 µM).

`COC(=O)c1ccc(NS(=O)(=O)c2c(C)nc3sccn3c2=O)cc1` returned a solubility (kinetic) greater than 56 µg/mL.
